Patent US20060079696A1, “Substituted compounds derived from N-(benzyl)phenylacetamide, preparation and uses” (GENFIT, priority 2004, published 2006)

Experiments:
Type in all cases: cell-based
hPPARα = target: T1, hPPARα (Homo sapiens, UniProt Q07869); experiment: Gal4-hPPARα chimera transactivation in COS-7 cells (luciferase); details: induction factor standardised to an internal reference, read-out: % hGal4-PPAR transactivation (10 μM) alpha
T1 construct: fragments of DNA amplified by PCR corresponding to the DEF domains of the human PPARα, PPARγ PPARδ nuclear receptors; expressed in transfected cells; host or cells: COS-7 (monkey kidney fibroblast line)
T1 sequence (Q07869 239-466 limits assumed): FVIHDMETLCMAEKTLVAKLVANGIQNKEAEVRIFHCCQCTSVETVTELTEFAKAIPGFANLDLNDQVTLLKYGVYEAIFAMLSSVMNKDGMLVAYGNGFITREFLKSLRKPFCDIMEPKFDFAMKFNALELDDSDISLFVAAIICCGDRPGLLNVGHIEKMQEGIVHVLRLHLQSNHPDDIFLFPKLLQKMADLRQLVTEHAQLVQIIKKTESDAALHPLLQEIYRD
Procedure: (§1) The PPAR activation was evaluated in vitro on a monkey kidney fibroblast line (COS-7) by measuring the transcriptional activity of chimeras constituted of the DNA binding domain of the Gal4 transcription factor of yeast and of the binding domain to the ligand of the different PPARs. The compounds were tested at doses between 0.01 and 100 μM on Gal4-PPARα, γ, δ chimeras. The induction factor (ratio between the luminescence induced by the compound and the luminescence induced by the control) was measured for each condition: the higher this factor, the more the compound has PPAR-activating properties.
(§2) The COS-7 cells from ATCC were cultivated in a DMEM medium supplemented with 10% (vol/vol) of foetal calf serum, 100 U/ml penicillin (Gibco, Paisley, UK) and 2 mM L-Glutamine (Gibco, Paisley, UK). The cells were incubated at 37° C. in a humid atmosphere containing 5% CO2.
(§3) The Gal4(RE)_TkpGL3, pGal4-hPPARα, pGal4-hPPARγ, pGal4-hPPARδ and pGal4-φ plasmids have been described in the literature (Raspe, Madsen et al. 1999). The pGal4-hPPARα, pGal4-hPPARγ and pGal4-hPPARδ constructs were obtained by cloning in the pGal4-φ vector of fragments of DNA amplified by PCR corresponding to the DEF domains of the human PPARα, PPARγ PPARδ nuclear receptors.
(§4) COS-7 cells were plated in 96 wells plates (5×10^4 cells/well) and transfected, in the presence of 10% foetal calf serum and 150 ng DNA per well, with a pGal4-PPAR/Gal4(RE)_TkpGL3 ratio of 1/10. The cells were then incubated for 24 hours with the compounds to be tested, without serum. At the end of the experiment, the cells were lysed and the luciferase activities were determined by means of Steady Glow Luciferase (Promega) according to the supplier's recommendations.
(§5) The inventive compounds were tested at 10 μM on the 3 PPAR isoforms. The results obtained are detailed in table (1). The transactivation measured is expressed as a response ratio versus an internal reference for each of the isoforms.
(§6) The compounds were tested at 10 μM on the Gal4-PPARα, γ, δ chimeras. The induction factor, i.e. the ratio between the luminescence induced by the compound and the luminescence induced by the control, was measured for each condition. It was then standardised in comparison to an internal reference and the results were then expressed in percentages : the higher the activation percentage, the more the compound has PPAR-activating properties.

hPPARγ = target: T2, hPPARγ (Homo sapiens, UniProt P37231); experiment: Gal4-hPPARγ chimera transactivation in COS-7 cells (luciferase); details: induction factor standardised to an internal reference, read-out: % hGal4-PPAR transactivation (10 μM) gamma
T2 construct: fragments of DNA amplified by PCR corresponding to the DEF domains of the human PPARα, PPARγ PPARδ nuclear receptors; expressed in transfected cells; host or cells: COS-7 (monkey kidney fibroblast line)
T2 sequence (P37231 238-503 limits assumed): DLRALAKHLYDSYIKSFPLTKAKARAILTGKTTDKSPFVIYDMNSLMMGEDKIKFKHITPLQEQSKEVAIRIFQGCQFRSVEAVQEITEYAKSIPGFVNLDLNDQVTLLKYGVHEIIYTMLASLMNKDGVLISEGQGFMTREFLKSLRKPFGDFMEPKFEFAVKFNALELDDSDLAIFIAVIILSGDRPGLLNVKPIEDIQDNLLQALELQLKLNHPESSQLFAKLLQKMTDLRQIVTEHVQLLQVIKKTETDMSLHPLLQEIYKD
Procedure: as §1, §2, §3, §4, §5, §6

hPPARδ = target: T3, hPPARδ (Homo sapiens, UniProt Q03181); experiment: Gal4-hPPARδ chimera transactivation in COS-7 cells (luciferase); details: induction factor standardised to an internal reference, read-out: % hGal4-PPAR transactivation (10 μM) delta
T3 construct: fragments of DNA amplified by PCR corresponding to the DEF domains of the human PPARα, PPARγ PPARδ nuclear receptors; expressed in transfected cells; host or cells: COS-7 (monkey kidney fibroblast line)
T3 sequence (Q03181 211-439 limits assumed): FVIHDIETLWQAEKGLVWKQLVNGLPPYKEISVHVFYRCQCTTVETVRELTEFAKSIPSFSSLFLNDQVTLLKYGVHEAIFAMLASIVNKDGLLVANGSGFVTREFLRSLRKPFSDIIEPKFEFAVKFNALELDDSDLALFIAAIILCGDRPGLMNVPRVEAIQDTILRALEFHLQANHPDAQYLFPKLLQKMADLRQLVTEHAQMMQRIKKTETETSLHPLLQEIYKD
Procedure: as §1, §2, §3, §4, §5, §6

activation at 10 µM (hPPARα) [%] | activation at 10 µM (hPPARγ) [%] | activation at 10 µM (hPPARδ) [%] | SMILES
40 | < 10 | < 10 | CCCC(NC(=O)Cc1ccc(OC(C)(C)C(=O)NS(C)(=O)=O)cc1)c1ccccc1N1CCCCC1 (stereo not drawn) [Compound 66, N-[methylsulfonyl]-2-[4-[1-(1-(2-(1-piperidinyl)phenyl)butyl)aminocarbonylmethyl]phenoxy]-2-methylpropanamide]
31 | 82 | < 10 | CCCCCCC(NC(=O)Cc1ccc(OC(C)(C)C(=O)O)cc1)c1ccccc1N1CCCCC1 (stereo not drawn) [Compound 5, 2-[4-[1-(1-(2-(1-piperidinyl)phenyl)heptyl)aminocarbonylmethyl]phenoxy]-2-methylpropanoic acid]
32 | < 10 | < 10 | CCCCC(NC(=O)Cc1ccc(OCC(C)(C)C(=O)O)cc1)c1ccccc1N1CCCCC1 (stereo not drawn) [Compound 42, 3-[4-[1-(1-(2-(1-piperidinyl)phenyl)pentyl)aminocarbonylmethyl]phenoxy]-2,2-dimethylpropanoic acid]
27 | 18 | < 10 | CCCCC(NC(=O)Cc1ccc(OC(C)(C)C(=O)O)cc1)c1ccccc1N1C[C@H](C)C[C@H](C)C1 (stereo partly drawn) [Compound 43, 2-[4-[1-(1-(2-((3S,5R)-3,5-dimethylpiperidine-1-yl)phenyl)pentyl)aminocarbonylmethyl]phenoxy]-2-methylpropanoic acid]
< 10 | 42 | < 10 | CCCCC(NC(=O)Cc1ccc(OC(C)(C)C(=O)O)c(OC)c1)c1ccccc1N1CCCCC1 (stereo not drawn) [Compound 73, 2-[2-methoxy-4-[1-(1-(2-(1-piperidinyl)phenyl)pentyl)aminocarbonylmethyl]phenoxy]-2-methylpropanoic acid]
< 10 | < 10 | < 10 | CCCCC(NC(=O)Cc1ccc(OC(C)(C)C(=O)NS(C)(=O)=O)cc1)c1ccccc1OC (stereo not drawn) [Compound 67, N-[methylsulfonyl]-2-[4-[1-(1-(2-(methoxy)phenyl)pentyl)aminocarbonylmethyl]phenoxy]-2-methylpropanamide]
< 10 | 37 | < 10 | CCCCC(NC(=O)Cc1ccc(OC(C)(C)C(=O)O)cc1)c1ccccc1OCC(C)C (stereo not drawn) [Compound 68, 2-[4-[1-(1-(2-(isobutyloxy)phenyl)pentyl)aminocarbonylmethyl]phenoxy]-2-methylpropanoic acid]

The remaining lines, values behind:

SMILES | activation at 10 µM (hPPARα) [%] | activation at 10 µM (hPPARγ) [%] | activation at 10 µM (hPPARδ) [%]
Cc1cc(CC(=O)NC(CC(C)C)c2ccccc2N2CCCCC2)cc(C)c1OC(C)(C)C(=O)O (stereo not drawn) [Compound 11, 2-[2,6-dimethyl-4-[1-(3-methyl-1-(2-(1-piperidinyl)phenyl)butyl)aminocarbonylmethyl]phenoxy]-2-methylpropanoic acid] | < 10 | 47 | < 10
CCCCC(NC(=O)Cc1ccc(OCCCC(Cl)(Cl)C(=O)O)cc1)c1ccccc1N1CCCCC1 (stereo not drawn) [Compound 47, 5-[4-[1-(1-(2-(1-piperidinyl)phenyl)pentyl)aminocarbonylmethyl]phenoxy]-2,2-dichloropentanoic acid] | 42 | < 10 | < 10
CC(NC(=O)Cc1ccc(OC(C)(C)C(=O)O)cc1)c1ccccc1N1CCCCC1 (stereo not drawn) [Compound 2, 2-[4-[1-(1-(2-(1-piperidinyl)phenyl)ethyl)aminocarbonylmethyl]phenoxy]-2-methylpropanoic acid] | < 10 | 27 | < 10
CC(NC(=O)Cc1ccc(OC(C)(C)C(=O)O)cc1)c1ccccc1N1CCCCCC1 (stereo not drawn) [Compound 15, 2-[4-[1-(1-(2-(1-hexamethyleneimino)phenyl)ethyl)aminocarbonylmethyl]phenoxy]-2-methylpropanoic acid] | < 10 | 42 | < 10
CCCCC(NC(=O)Cc1ccc(OCc2nnn[nH]2)cc1)c1ccccc1N1CCCCC1 (stereo not drawn) [Compound 70, 2-(4-((1H-tetrazol-5-yl)methoxy)phenyl)-N-[1-(1-(2-(1-piperidinyl)phenyl)pentyl)]acetamide] | < 10 | 13 | < 10
CC(C)CC(NC(=O)Cc1ccc(OCCCCOc2ccc(OC(C)(C)C(=O)O)cc2)cc1)c1ccccc1N1CCCCC1 (stereo not drawn) [Compound 40, 2-{4-{4-[4-[1-(3-methyl-1-(2-(1-piperidinyl)phenyl)butyl)aminocarbonylmethyl]phenoxy]butoxy}phenoxy}-2-methylpropanoic acid] | 20 | 55 | < 10
COc1ccc(CC(NC(=O)Cc2ccc(OC(C)(C)C(=O)O)cc2)c2ccccc2N2CCCCC2)cc1 (stereo not drawn) [Compound 48, 2-[4-[1-(2-(4-methoxyphenyl)-1-(2-(1-piperidinyl)phenyl)ethyl)aminocarbonylmethyl]phenoxy]-2-methylpropanoic acid] | < 10 | 17 | < 10
CCCCC(NC(=O)Cc1ccc(OC(C)(C)C(=O)O)cc1)c1ccc(-n2ccc3ccccc32)cc1N1CCCCC1 (stereo not drawn) [Compound 38, 2-[4-[1-(1-(2-(1-piperidinyl)-4-(1H-indolyl)phenyl)pentyl)aminocarbonylmethyl]phenoxy]-2-methylpropanoic acid] | 13 | < 10 | 18
CCCCC(NC(=O)Cc1ccc(OC(C)(C)C(=O)O)cc1)c1ccc(CCc2ccccc2)cc1N1CCCCC1 (stereo not drawn) [Compound 50, 2-[4-[1-(1-(2-(1-piperidinyl)-4-(phenethyl)phenyl)pentyl)aminocarbonylmethyl]phenoxy]-2-methylpropanoic acid] | < 10 | < 10 | 11
CCN(CCCC(C)(C)C(=O)O)c1ccc(CC(=O)NC(CC(C)C)c2ccccc2N2CCCCC2)cc1 (stereo not drawn) [Compound 46, 5-{N-ethyl-N-[4-[1-(3-methyl-1-(2-(1-piperidinyl)phenyl)butyl)aminocarbonylmethyl]phenyl]amino}-2,2-dimethylpentanoic acid] | 58 | 12 | < 10
